Literature values in patent US20090214643A1, “IMPROVED PHARMACOKINETIC PROFILE OF BETA-ADRENERGIC INVERSE AGONISTS FOR THE TREATMENT OF PULMONARY AIRWAY DISEASES” (priority 2005, published 2009).

How the values were obtained:
[1] = single dose, Corgard product insert

Compound: CC(C)(C)NCC(O)COc1cccc2c1CC(O)C(O)C2 (stereo not drawn) [nadolol]
- average Tmax (time to peak serum level) [1]: 3.5 h
- response of asthmatics to beta blocker administration (asthmatics; medical literature accounts): serious pulmonary function reduction

Compound: CC(C)NCC(O)c1ccc2ccccc2c1 (stereo not drawn) [pronethalol]
- effect on airway function observed in asthmatics (asthmatics; literature 1962, 1964): reduction in airway function
